Reference: patent US8263151B2, “Peracid and 2-hydroxy organic acid compositions and methods for treating produce” (Fresh Express, Incorporated, priority 2008, dated 2012)

Columns and labels:
[1] = electron-Volts; cited from earlier work
[2] = tested on: E. coli K12; experiment: Attached cells challenge test on leaves (Example 1); format: cell-based; details: PAA 0 ppm
[3] = tested on: Listeria innocua; experiment: as above; format: cell-based; details: PAA 0 ppm
[4] = tested on: indigenous microorganisms (Aerobic Plate Counts); format: cell-based

[O][Cl+][O-] [Chlorine Dioxide]
Oxidation Capacity [1]: 1.57 eV

CC(O)C(=O)O (stereo not drawn) [LA, lactic acid]
log reduction of attached cells (quantity not given) ([2]; Romaine, LA 0.6%): 0.24
log reduction of attached cells (quantity not given) ([2]; Romaine, LA 0.9%): 0.37
log reduction of attached cells (quantity not given) ([2]; Spinach, LA 0.6%): 0.09
log reduction of attached cells (quantity not given) ([2]; Spinach, LA 0.9%): 0.42
log reduction of attached cells (quantity not given) ([2]; Spinach, LA 1.2%): 0.81
log reduction of attached cells (quantity not given) ([3]; Romaine, LA 0.6%): 1.1
log reduction of attached cells (quantity not given) ([3]; Romaine, LA 0.9%): 1.4
log reduction of attached cells (quantity not given) ([3]; Romaine, LA 1.2%): 1.5
log reduction of attached cells (quantity not given) ([3]; Spinach, LA 0.6%): 0.1
log reduction of attached cells (quantity not given) ([3]; Spinach, LA 0.9%): 0.2
log reduction of attached cells (quantity not given) ([3]; Spinach, LA 1.2%): 0.2

O=[O+][O-] [Ozone]
Oxidation Capacity [1]: 2.07 eV

CC(=O)OO [PAA, peroxyacetic acid]
Log Reduction of Aerobic Plate Counts vs untreated [4]: 0.7 Log cfu/g
Oxidation Capacity [1]: 1.81 eV
